Reference: patent US20100272773A1, “Use of Drug Polymorphs to Achieve Controlled Drug Delivery From a Coated Medical Device” (BOSTON SCIENTIFIC SCIMED, INC., priority 2009, published 2010)

Assay: Calculated time for complete dissolution of Ptx transferred to the vessel
Assay type: physicochemical
Conditions: ~23 μg Ptx transferred to vessel divided by dissolution rate
From the text: The ability to control the Ptx morphology on a drug coated balloon is important in achieving proper dosing. This is illustrated by the following example. […] Other factors such as particle size will also influence dissolution.

| Compound | Time for complete dissolution | Time for complete dissolution of the Ptx |
| --- | --- | --- |
| CC(=O)O[C@H]1C(=O)[C@@]2(C)[C@H]([C@H](OC(=O)c3ccccc3)[C@]3(O)C[C@H](OC(=O)[C@H](O)[C@@H](NC(=O)c4ccccc4)c4ccccc4)C(C)=C1C3(C)C)[C@]1(OC(C)=O)CO[C@@H]1C[C@@H]2O [PTx 2H2O Crystalline, paclitaxel] | about 10 days |  |
| CC(=O)O[C@H]1C(=O)[C@@]2(C)[C@H]([C@H](OC(=O)c3ccccc3)[C@]3(O)C[C@H](OC(=O)[C@H](O)[C@@H](NC(=O)c4ccccc4)c4ccccc4)C(C)=C1C3(C)C)[C@]1(OC(C)=O)CO[C@@H]1C[C@@H]2O [PTx Anhydrous Crystal, paclitaxel] |  | about 1 day |
